3 compounds from article PMC6802219, “A kinase-independent role for CDK8 in BCR-ABL1^+ leukemia” (Nature Communications, 2019) can be followed below.

One experiment relates to #11. The experiment can be described thus: cells. Also noted: species or system primary ALL patient cells; 3H-thymidine incorporation proliferation assay in primary ALL patient cells. To be noted: 48 h. The method, then:
(§1) Synthesis details of YKL-06-101 and JH-XI-10-02 are provided in Supplementary Notes 1 and 2. Proliferation of degrader-exposed human leukemic cell lines and primary ALL patient cells were examined by measuring 3H-thymidine uptake after 48 h. For immunoblottings and FACS analysis, cells were incubated with the indicated concentrations of the degraders up to 96 h.  Fig. 7 Chemical CDK8 degradation cooperates with mTOR inhibition. a Co-expression matrix of CDK8 and members of mTOR/PI3K signaling pathways in samples of 203 pediatric ALL patients (TARGET cohort, RNA-seq) and b 179 AML patients (TCGA AML cohort, RNA-seq). […] DMSO was used as vehicle control (D: DMSO, n = 3). Immunoblots show mTOR, CDK8, and pS6 after incubation of f REH cells or g Z119 cells with 0.5 µM and 1 µM of JH-XI-10-02 or YKL-06-101 for 48, 72, and 96 h. DMSO (indicated as D) was used as vehicle control and β-actin served as loading control. h AnnexinV/7AAD staining of Z119 cells incubated with 0.5 µM and 1 µM of JH-XI-10-02 or YKL-06-101 for 72 and 96 h. DMSO was used as a vehicle control (D: DMSO, n = 3). i AnnexinV/7AAD staining of Z119 cells incubated with Torin1, JH-XI-10-02, or both in combination with indicated concentrations for 72 and 96 h. DMSO (indicated as D) was used as a vehicle control. One representative experiment out of three is depicted. j Bar diagram depicts relative thymidine incorporation of six primary B-ALL patient samples incubated for 48 h with 1 μM of YKL-06-101. Patient #1 represents a non-responder, patient #4 was BCR-ABL1^+ (Ph^+), whereas the others were BCR-ABL1^− (Ph^−). Levels of significance were calculated using Kruskal–Wallis test followed by Dunn’s test, data represents means ± SD (*p < 0.05, **p < 0.01). Source data are provided as a Source Data file

Another experiment relates to #12. As to the kind of experiment: cells. The settings on record: 48 h. Also noted: species or system primary ALL patient cells; 3H-thymidine incorporation proliferation assay in primary ALL patient cells. The method, then:
as §1

The subject of the next experiment is #13. As to the kind of experiment: cells. Also noted: species or system primary ALL patient cells; 3H-thymidine incorporation proliferation assay in primary ALL patient cells. To be noted: 48 h. On the procedure:
as §1

The subject of the next experiment is #14. The experiment can be described thus: cells. The arrangement: species or system primary ALL patient cells; 3H-thymidine incorporation proliferation assay in primary ALL patient cells. The settings on record: 48 h. The method, then: as §1
The subject of the next experiment is #15. As to the kind of experiment: cells. Also noted: species or system primary ALL patient cells; 3H-thymidine incorporation proliferation assay in primary ALL patient cells. To be noted: 48 h. On the procedure:
as §1

The test system of the next experiment is #1. As to the kind of experiment: cells. The arrangement: species or system primary ALL patient cells; 3H-thymidine incorporation proliferation assay in primary ALL patient cells. To be noted: 48 h. The method, then:
as §1

A further experiment deals with #3. As to the kind of experiment: cells. Also noted: species or system primary ALL patient cells; 3H-thymidine incorporation proliferation assay in primary ALL patient cells. To be noted: 48 h. On the procedure:
as §1

The next experiment has as its system #4. The experiment can be described thus: cells. The settings on record: 48 h. The arrangement: species or system primary ALL patient cells; 3H-thymidine incorporation proliferation assay in primary ALL patient cells. The method, then: as §1
The subject of the next experiment is #6. As to the kind of experiment: cells. The arrangement: species or system primary ALL patient cells; 3H-thymidine incorporation proliferation assay in primary ALL patient cells. The settings on record: 48 h. The method, then:
as §1

The test system of a further experiment is #7. As to the kind of experiment: cells. The arrangement: species or system primary ALL patient cells; 3H-thymidine incorporation proliferation assay in primary ALL patient cells. The settings on record: 48 h. The method, then:
as §1

The subject of the next experiment is #8. The experiment can be described thus: cells. Also noted: species or system primary ALL patient cells; 3H-thymidine incorporation proliferation assay in primary ALL patient cells. The settings on record: 48 h. On the procedure: as §1
The next experiment concerns #9. The experiment can be described thus: cells. The arrangement: species or system primary ALL patient cells; 3H-thymidine incorporation proliferation assay in primary ALL patient cells. The settings on record: 48 h. The method, then:
as §1

A further experiment addresses CDK8 (Homo sapiens, UniProt P49336). As to the kind of experiment: CDK8 kinase inhibition IC50 (assay not detailed in main text). It is filed as biochemical.

Where two headings read alike, the source gives them in different places.

By IC50 is commonly meant the point on the concentration scale where inhibition reaches its midpoint.

Sequence of CDK8 (P49336 whole entry): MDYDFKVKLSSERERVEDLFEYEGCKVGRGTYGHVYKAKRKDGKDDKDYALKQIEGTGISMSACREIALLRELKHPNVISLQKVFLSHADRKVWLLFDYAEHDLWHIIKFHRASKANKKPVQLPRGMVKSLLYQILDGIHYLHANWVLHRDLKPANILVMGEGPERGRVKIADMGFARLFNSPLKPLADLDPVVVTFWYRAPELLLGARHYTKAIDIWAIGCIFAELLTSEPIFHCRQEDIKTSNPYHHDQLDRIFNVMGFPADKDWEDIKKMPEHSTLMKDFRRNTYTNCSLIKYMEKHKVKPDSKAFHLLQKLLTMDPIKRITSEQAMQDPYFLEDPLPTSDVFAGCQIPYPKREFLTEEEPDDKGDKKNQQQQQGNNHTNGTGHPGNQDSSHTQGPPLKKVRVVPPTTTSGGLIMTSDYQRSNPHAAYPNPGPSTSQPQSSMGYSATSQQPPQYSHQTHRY

Regarding `CN(C(=O)CCOCCOCCOCCOCCNc1cccc2c1C(=O)N(C1CCC(=O)NC1=O)C2=O)[C@H]1CC[C@@]2(C)[C@@H](CC[C@@H]3[C@@H]2CC[C@]2(C)[C@@H](c4ccc5ccncc5c4)CC[C@@H]32)C1` (stereo partly shown) [JH-XI-10-02], the IC50 with #11 (read-out: JH-XI-10-02 IC50), in the experiment on #12 (read-out: JH-XI-10-02 IC50), in the experiment with #13 (read-out: JH-XI-10-02 IC50), with #14 (read-out: JH-XI-10-02 IC50), with #15 (read-out: JH-XI-10-02 IC50) and in the experiment with #1 (read-out: JH-XI-10-02 IC50) was greater than 10 µM throughout. Also, the IC50 in the experiment on #3 (read-out: JH-XI-10-02 IC50), in the experiment with #4 (read-out: JH-XI-10-02 IC50), in the experiment with #6 (read-out: JH-XI-10-02 IC50), in the experiment on #7 (read-out: JH-XI-10-02 IC50), in the experiment on #8 (read-out: JH-XI-10-02 IC50) and with #9 (read-out: JH-XI-10-02 IC50) was greater than 10 µM in each case.
With `O=C1CCC(N2C(=O)c3cccc(NCCOCCOCCOCCOCCOCCC(=O)N4CCN(c5ccc(-n6c(=O)ccc7cnc8ccc(-c9ccc%10ccncc%10c9)cc8c76)cc5C(F)(F)F)CC4)c3C2=O)C(=O)N1` (stereo not shown) [YKL-06-101], the 50% inhibitory concentration (IC50) with #11 (read-out: YKL-06-101 IC50) is 0.4 µM; in the experiment on #12 (read-out: YKL-06-101 IC50), greater than 10 µM; in the experiment with #13 (read-out: YKL-06-101 IC50) it was 0.3 µM; with #14 (read-out: YKL-06-101 IC50), greater than 10 µM; in the experiment on #15 (read-out: YKL-06-101 IC50), 10 µM; in the experiment with #1 (read-out: YKL-06-101 IC50), greater than 10 µM. For the same compound, the IC50 with #3 (read-out: YKL-06-101 IC50) is 0.9 µM; in the experiment on #4 (read-out: YKL-06-101 IC50) it was greater than 10 µM; with #6 (read-out: YKL-06-101 IC50) it was 0.1 µM; with #7 (read-out: YKL-06-101 IC50), greater than 10 µM; in the experiment with #8 (read-out: YKL-06-101 IC50) it was greater than 10 µM; with #9 (read-out: YKL-06-101 IC50) it was 9 µM.
At CDK8, THZ4-55 displayed an IC50 of 0.005 µM.
